Test results reported in article PMC8749467, “A new ALK inhibitor overcomes resistance to first‐ and second‐generation inhibitors in NSCLC” (EMBO Molecular Medicine, 2021).
Read-outs that look alike come from different tables or passages of the source. One block for each compound: values may come before it.

Columns and labels:
[1] = test system: EML4-ALK Ba/F3 cells; assay: Cell survival assay (MTS); conditions: EML4-ALK Ba/F3, 48 h
[2] = test system: kinase panels; conditions: cited from earlier work
[3] = test system: parental (wild-type) Ba/F3 cells; assay: Cell survival assay (MTS); type: cell-based, murine; conditions: Mus musculus, BaF3, 48 h
[4] = Pharmacokinetics in ICR mice; type: in vivo; conditions: for concentration at […] / concentration at 0.25 h / concentration at 0.5 h / concentration at 1 h / concentration at 2 h / concentration at 4 h / concentration at 8 h / concentration at 24 h: ICR, blood, read-out: Blood drug concentration; for concentration at […]: 0.083 h; for MRT inf: read-out: MRT(0-∞); for Vd: read-out: Vz;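 for all read-outs here: drug levels in collected samples measured by LC-MS/MS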
[5] = reported data ref Huber et al, 2014
[6] = mouse, plasma, IV, 5 mg/kg, ICR mice
[7] = mouse, plasma, IV, 30 mg/kg, ICR mice
[8] = mouse, plasma, IV, 60 mg/kg, ICR mice
[9] = mouse, plasma, PO, 10 mg/kg, ICR mice

SMILES: C[C@H]1Oc2cc(cnc2N)-c2c(nn(C)c2C#N)CN(C)C(=O)c2ccc(F)cc21 [Lorlatinib, lorlatinib]
- IC50 [1]: 1.5 nM

SMILES: CCc1cc2c(cc1N1CCC(N3CCOCC3)CC1)C(C)(C)c1[nH]c3cc(C#N)ccc3c1C2=O [Alectinib, alectinib]
- S(10) ([2]; reported data ref Sakamoto et al, 2011): 0.07

SMILES: COc1cc(N2CCC(N3CCN(C)CC3)CC2)ccc1Nc1ncc(Cl)c(Nc2ccccc2P(C)(C)=O)n1 [Brigatinib, brigatinib]
- IC50 ([1]; Mus musculus, BaF3, 48 h): 17.3 nM
- S(10) ([2]; reported data ref Zhang et al, 2016): 0.34

SMILES: C[C@@H](Oc1cc(-c2cnn(C3CCNCC3)c2)cnc1N)c1c(Cl)ccc(F)c1Cl [Crizotinib, crizotinib]
- IC50 [3]: 1120 nM
- S(35) [2, 5]: 0.21
- number of kinases with ctrl ≤35% [2, 5]: 94

- concentration at […] ([4]; mouse, IV, 5 mg/kg, mice): 4300 ng/mL
- concentration at 0.25 h ([4]; mouse, IV, 5 mg/kg, mice): 2430 ng/mL
- concentration at 0.5 h ([4]; mouse, IV, 5 mg/kg, mice): 1530 ng/mL
- concentration at 1 h ([4]; mouse, IV, 5 mg/kg, mice): 613 ng/mL
- concentration at 2 h ([4]; mouse, IV, 5 mg/kg, mice): 308 ng/mL
- concentration at 4 h ([4]; mouse, IV, 5 mg/kg, mice): 72.8 ng/mL
- concentration at 8 h ([4]; mouse, IV, 5 mg/kg, mice): 28.7 ng/mL
- concentration at 24 h ([4]; mouse, IV, 5 mg/kg, mice): 2.09 ng/mL
- concentration at […] ([4]; mouse, IV, 30 mg/kg, mice): 8260 ng/mL
- concentration at 0.25 h ([4]; mouse, IV, 30 mg/kg, mice): 5430 ng/mL
- concentration at 0.5 h ([4]; mouse, IV, 30 mg/kg, mice): 3870 ng/mL
- concentration at 1 h ([4]; mouse, IV, 30 mg/kg, mice): 2990 ng/mL
- concentration at 2 h ([4]; mouse, IV, 30 mg/kg, mice): 2060 ng/mL
- concentration at 4 h ([4]; mouse, IV, 30 mg/kg, mice): 688 ng/mL
- concentration at 8 h ([4]; mouse, IV, 30 mg/kg, mice): 171 ng/mL
- concentration at 24 h ([4]; mouse, IV, 30 mg/kg, mice): 17.9 ng/mL
- concentration at […] ([4]; mouse, IV, 60 mg/kg, mice): 12400 ng/mL
- concentration at 0.25 h ([4]; mouse, IV, 60 mg/kg, mice): 7190 ng/mL
- concentration at 0.5 h ([4]; mouse, IV, 60 mg/kg, mice): 6430 ng/mL
- concentration at 1 h ([4]; mouse, IV, 60 mg/kg, mice): 5430 ng/mL
- concentration at 2 h ([4]; mouse, IV, 60 mg/kg, mice): 2910 ng/mL
- concentration at 4 h ([4]; mouse, IV, 60 mg/kg, mice): 2580 ng/mL
- concentration at 8 h ([4]; mouse, IV, 60 mg/kg, mice): 555 ng/mL
- concentration at 24 h ([4]; mouse, IV, 60 mg/kg, mice): 29.6 ng/mL
- dose dependence of blood drug concentrations ([4]; IV, 5, 30 and 60 mg/kg, mice): linear increase
- AUC(0-inf) [4, 6]: 3310 ng·h/mL
- AUC(0-t) [4, 6]: 3300 ng·h/mL
- C0 [4, 6]: 5720 ng/mL
- Cmax [4, 6]: 4300 ng/mL
- Tmax [4, 6]: 0.08 h
- clearance [4, 6]: 25.2 mL/min/kg
- half-life [4, 6]: 3.99 h
- MRT inf [4, 6]: 1.74 h
- Vd [4, 6]: 8.7 L/kg
- AUC(0-inf) [4, 7]: 13200 ng·h/mL
- AUC(0-t) [4, 7]: 13100 ng·h/mL
- C0 [4, 7]: 10200 ng/mL
- clearance [4, 7]: 37.8 mL/min/kg
- half-life [4, 7]: 4.93 h
- MRT inf [4, 7]: 2.95 h
- Vd [4, 7]: 6.7 L/kg
- AUC(0-inf) [4, 8]: 26400 ng·h/mL
- AUC(0-t) [4, 8]: 26200 ng·h/mL
- C0 [4, 8]: 16300 ng/mL
- clearance [4, 8]: 37.8 mL/min/kg
- half-life [4, 8]: 4.01 h
- MRT inf [4, 8]: 3.39 h
- Vd [4, 8]: 7.71 L/kg
- AUC(0-inf) [4, 9]: 1270 ng·h/mL
- AUC(0-t) [4, 9]: 1210 ng·h/mL
- Cmax [4, 9]: 474 ng/mL
- Tmax [4, 9]: 0.5 h
- half-life [4, 9]: 1.53 h
- bioavailability ([4]; mouse, plasma, PO, 10 mg/kg, ICR mice, read-out: F (oral bioavailability)): 18.3%
- MRT inf [4, 9]: 3.08 h
SMILES: COc1cc2c(cc1Nc1nc(Nc3ccccc3S(=O)(=O)C(C)C)c3[nH]ccc3n1)N(C(=O)CN(C)C)CC2 [XMU-MP-5]

SMILES: Cc1cc(Nc2ncc(Cl)c(Nc3ccccc3S(=O)(=O)C(C)C)n2)c(OC(C)C)cc1C1CCNCC1 [Ceritinib, ceritinib]
- IC50 ([1]; Mus musculus, BaF3, 48 h): 1.2 nM
- S(10) ([2]; reported data ref Jang et al, 2017): 0.19
